According to ChEMBL document CHEMBL5620433, “Design and synthesis of new 1,2,3-triazoles derived from eugenol and analogues with in vitro and in vivo activity against Trypanosoma cruzi” (Eur J Med Chem, 2023):
pIC50: −log10 of the molar value. Activity calls are given as the source filed them. The rule behind the calls is not given here.

Columns and labels:
[1] = target: Cruzipain (Trypanosoma cruzi) (UniProt P25779); assay: Inhibition of recombinant Trypanosoma cruzi Cruzain using Z-FR-AMC as substrate at 100 uM measured for 5 mins by fluorescence based analysis
Chain of Cruzipain (Trypanosoma cruzi) (P25779 123-467 limits assumed): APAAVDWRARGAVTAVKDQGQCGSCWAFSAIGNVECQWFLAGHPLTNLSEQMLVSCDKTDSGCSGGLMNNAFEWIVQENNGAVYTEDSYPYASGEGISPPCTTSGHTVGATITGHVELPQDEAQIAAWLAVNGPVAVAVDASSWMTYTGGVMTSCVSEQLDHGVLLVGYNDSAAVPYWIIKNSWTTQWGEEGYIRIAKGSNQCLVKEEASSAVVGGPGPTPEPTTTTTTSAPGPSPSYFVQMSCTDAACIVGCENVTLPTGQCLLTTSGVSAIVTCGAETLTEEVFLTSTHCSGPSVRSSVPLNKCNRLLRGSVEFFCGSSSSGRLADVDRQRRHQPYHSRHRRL

[2] = Selectivity index, ratio of CC50 for cytotoxicity against rat H9c2 cells to IC50 for antitrypanosomal activity against epimastigote form of Trypanosoma cruzi Y; type: toxicity, cell-based; settings: read-out: Ratio IC50
Trypanosoma cruzi [3] = assay: Antitrypanosomal activity against epimastigote form of Trypanosoma cruzi Y assessed as inhibition of parasite proliferation incubated for 72 hrs by resazurin dye based analysis; type: functional, organism-based
[4] = target: Cruzipain (Trypanosoma cruzi) (UniProt P25779); assay: Inhibition of recombinant Trypanosoma cruzi Cruzain using Z-FR-AMC as substrate at 100 uM preincubated with enzyme for 10 mins and measured for 5 mins by fluorescence based analysis; settings: time 15.0 min
[5] = (§1) Cytotoxicity against rat H9c2 cells assessed as reduction in cell viability measured after 72 hrs by resazurin due based analysis; type: toxicity; settings: rat, H9c2 cells
H9c2 = assay: as §1; type: toxicity; settings: h9c2
[6] = Toxicity in Swiss mouse infected with trypomastigote form of Trypanosoma cruzi Y assessed as increase in weight gain at 10 to 100 mg/kg, po administered via gavage for 7 days from day 5 post-infection; type: organism-based; settings: in vivo, 168 h, dose 10-100 mg/kg, time 7 day
Trypanosoma cruzi [7] = assay: Antitrypanosomal activity against trypomastigote form of Trypanosoma cruzi Y assessed as inhibition of parasite viability incubated for 24 hrs by light microscopy; type: functional, organism-based
Trypanosoma cruzi [8] = assay: Anti-trypanosomal activity against trypomastigote form of Trypanosoma cruzi Y infected in Swiss mouse assessed as reduction in parasitemia at 10 to 100 mg/kg, po administered via gavage for 7 days from day 5 post-infection; type: functional, organism-based; settings: dose 10-100 mg/kg, time 7.0 day
[9] = Toxicity in po dosed Swiss mouse infected with trypomastigote form of Trypanosoma cruzi Y assessed as mortality administered via gavage for 7 days from day 5 post-infection and measured on day 13 post-infection; type: organism-based; settings: in vivo, 192 h, time 8 day
[10] = Toxicity in po dosed Swiss mouse infected with trypomastigote form of Trypanosoma cruzi Y assessed as bristly fur administered via gavage for 7 days from day 5 post-infection and measured on day 13 post-infection; type: organism-based; settings: in vivo, 192 h, time 8 day
[11] = Hepatotoxicity in Swiss mouse infected with trypomastigote form of Trypanosoma cruzi Y assessed as plasma alanine aminotransferase level at 50 to 100 mg/kg, po administered via gavage for 7 days from day 5 post-infection by spectrophotometry; type: toxicity, organism-based; settings: in vivo, 168 h, dose 50-100 mg/kg, time 7 day
[12] = Toxicity in po dosed Swiss mouse infected with trypomastigote form of Trypanosoma cruzi Y assessed as diarrhea administered via gavage for 7 days from day 5 post-infection and measured on day 13 post-infection; type: organism-based; settings: in vivo, 192 h, time 8 day
[13] = Toxicity in po dosed Swiss mouse infected with trypomastigote form of Trypanosoma cruzi Y assessed as apathy administered via gavage for 7 days from day 5 post-infection and measured on day 13 post-infection; type: organism-based; settings: in vivo, 192 h, time 8 day
[14] = Hepatotoxicity in Swiss mouse infected with trypomastigote form of Trypanosoma cruzi Y assessed as plasma aspartate aminotransferase level at 50 to 100 mg/kg, po administered via gavage for 7 days from day 5 post-infection by spectrophotometry; type: toxicity, organism-based; settings: in vivo, 168 h, dose 50-100 mg/kg, time 7 day
Mus musculus [15] = assay: Reduction in plasma IgG1 level in Swiss mouse infected with trypomastigote form of Trypanosoma cruzi Y at 10 to 50 mg/kg, po administered via gavage for 7 days from day 5 post-infection by ELISA; type: functional, organism-based; settings: dose 10-50 mg/kg, time 7.0 day
[16] = Toxicity in po dosed Swiss mouse infected with trypomastigote form of Trypanosoma cruzi Y assessed as fur alteration administered via gavage for 7 days from day 5 post-infection and measured on day 13 post-infection; type: organism-based; settings: in vivo, 192 h, time 8 day
[17] = Genotoxicity in rat H9c2 cells assessed as induction of DNA damage at 10 uM incubated for 72 hrs by gel electrophoresis analysis; type: toxicity, cell-based; settings: h9c2, 72 h
Trypanosoma cruzi [18] = assay: Anti-trypanosomal activity against trypomastigote form of Trypanosoma cruzi Y infected in Swiss mouse assessed as reduction in parasitemia at 50 mg/kg, po administered via gavage for 7 days from day 5 post-infection; type: functional, organism-based; settings: time 7.0 day
Trypanosoma cruzi [19] = assay: Anti-trypanosomal activity against trypomastigote form of Trypanosoma cruzi Y infected in Swiss mouse assessed as reduction in parasitemia at 100 mg/kg, po administered via gavage for 7 days from day 5 post-infection; type: functional; settings: 168 h, time 7 day
Mus musculus [20] = assay: Reduction in cardiac inflammation in Swiss mouse infected with trypomastigote form of Trypanosoma cruzi Y assessed as reduction in inflammatory nuclei at 10 to 100 mg/kg, po administered via gavage for 7 days from day 5 post-infection by Hematoxylin-Eosin staining based microscopy; type: functional, organism-based; settings: dose 10-100 mg/kg, time 7.0 day
Mus musculus [21] = assay: Reduction in plasma total IgG level in Swiss mouse infected with trypomastigote form of Trypanosoma cruzi Y at 10 to 50 mg/kg, po administered via gavage for 7 days from day 5 post-infection by ELISA; type: functional, organism-based; settings: dose 10-50 mg/kg, time 7.0 day
Mus musculus [22] = assay: Reduction in plasma IgG2 level in Swiss mouse infected with trypomastigote form of Trypanosoma cruzi Y at 100 mg/kg, po administered via gavage for 7 days from day 5 post-infection by ELISA; type: functional, organism-based; settings: time 7.0 day
[23] = Toxicity in Swiss mouse infected with trypomastigote form of Trypanosoma cruzi Y assessed as collateral effects at 10 to 100 mg/kg, po administered via gavage for 7 days from day 5 post-infection; type: organism-based; settings: in vivo, 168 h, dose 10-100 mg/kg, time 7 day
Mus musculus [24] = assay: Reduction in plasma IgG2 level in Swiss mouse infected with trypomastigote form of Trypanosoma cruzi Y at 10 to 50 mg/kg, po administered via gavage for 7 days from day 5 post-infection by ELISA; type: functional, organism-based; settings: dose 10-50 mg/kg, time 7.0 day
Mus musculus [25] = assay: Reduction in plasma total IgG level in Swiss mouse infected with trypomastigote form of Trypanosoma cruzi Y at 100 mg/kg, po administered via gavage for 7 days from day 5 post-infection by ELISA; type: functional, organism-based; settings: time 7.0 day
Mus musculus [26] = assay: Reduction in plasma IgG1 level in Swiss mouse infected with trypomastigote form of Trypanosoma cruzi Y at 100 mg/kg, po administered via gavage for 7 days from day 5 post-infection by ELISA; type: functional, organism-based; settings: time 7.0 day
Trypanosoma cruzi [27] = assay: Anti-trypanosomal activity against trypomastigote form of Trypanosoma cruzi Y infected in Swiss mouse assessed as reduction in parasitemia at 100 mg/kg, po administered via gavage for 2 days from day 5 post-infection; type: functional; settings: 48 h, time 2 day
Trypanosoma cruzi [28] = assay: Anti-trypanosomal activity against trypomastigote form of Trypanosoma cruzi Y infected in mouse assessed as reduction in parasitemia at 100 mg/kg, po for 7 days; type: functional; settings: 168 h, time 7 day
Trypanosoma cruzi [29] = assay: Anti-trypanosomal activity against epimastigote form of Trypanosoma cruzi by resazurin microtiter assay; type: functional, organism-based

Row | inhibition [1] [%] | pIC50 (Trypanosoma cruzi [3]) | inhibition [4] [%] | Structure (SMILES) | selectivity ratio [2] | IC50 at 72 h [5] [µM] | further results
1 | 7.2 | 3.47 | 7.2 | CCCc1ccc(OCC(Cn2cc(-c3ccccc3)nn2)OCc2ccccc2)c(OC)c1 (racemic) | > 1.1 | > 400 | –
2 | 7.2 | 3.25 | 7.2 | CCCc1ccc(OCC(=O)Cn2cc(-c3ccccc3)nn2)c(OC)c1 | 1.9 | – | pIC50 (H9c2): 2.97
3 | 7.2 | 4.12 | 7.2 | CCCc1ccc(OCC(O)Cn2cc(COc3ccccc3)nn2)c(OC)c1 (racemic) | 2.7 | 211 | –
4 | 7.2 | 3.59 | 7.2 | C=CCc1ccc(OCC(O)Cn2cc(COc3ccccc3)nn2)c(OC)c1 (racemic) | 1.6 | 410 | –
5 | 7.2 | 3.67 | 7.2 | CCCc1ccc(OCC(O)Cn2ccnn2)c(OC)c1 (racemic) | 3.5 | 743 | –
6 | 7.2 | 4.46 | 7.2 | CCCc1ccc(OCC(O)Cn2cc(COc3ccc(OC)cc3)nn2)c(OC)c1 (racemic) | 9.1 | 315 | –
7 | 7.2 | 3.95 | 7.2 | COc1ccccc1OCC(O)Cn1cc(COc2ccccc2)nn1 (racemic) | 3.8 | 437 | –
8 | 7.2 | 3.70 | 7.2 | CCCc1ccc(OCC(Cn2cc(-c3ccccc3)nn2)OC)c(OC)c1 (racemic) | 2.8 | 555 | –
9 | 7.2 | 3.92 | 7.2 | COc1ccccc1OCC(O)Cn1cc(COc2ccc(Cl)cc2)nn1 (racemic) | 3.1 | 380 | –
10 | 7.2 | 3.90 | 7.2 | COc1ccccc1OCC(O)Cn1cc(-c2ccccc2)nn1 (racemic) | 3.3 | 422 | –
11 | 7.2 | 4.39 | 7.2 | CCCc1ccc(OCC(O)Cn2cc(COc3ccc(C(C)C)cc3)nn2)c(OC)c1 (racemic) | 7.3 | 302 | –
12 | 17 | 4.27 | 17 | CCCc1ccc(OCC(O)Cn2cc(-c3ccccc3)nn2)c(OC)c1 (racemic) | 0.3 | 16.8 | inhibition in vivo at 100 mg/kg (Trypanosoma cruzi [28]): 50%; pIC50 (Trypanosoma cruzi [29]): 4.37

The remaining lines, values behind:

Row | Structure (SMILES) | inhibition [1] [%] | pIC50 (Trypanosoma cruzi [3]) | inhibition [4] [%] | selectivity ratio [2] | IC50 at 72 h [5] [µM] | further results
13 | COc1ccc(OCc2cn(CC(O)COc3ccccc3OC)nn2)cc1 (racemic) | 7.2 | 3.95 | 7.2 | 4.1 | 469 | –
14 | COc1ccccc1OCC(O)Cn1cc(COc2ccc([N+](=O)[O-])cc2)nn1 (racemic) | 7.2 | 4.22 | 7.2 | 2.1 | 134 | –
15 | C=CCc1ccc(OCC(O)Cn2cc(COc3ccc([N+](=O)[O-])cc3)nn2)c(OC)c1 (racemic) | 7.2 | 3.83 | 7.2 | 2.1 | 323 | –
16 | COc1ccccc1OCC(O)Cn1cc(COc2ccc(C(C)C)cc2)nn1 (racemic) | 7.2 | 4.19 | 7.2 | – | – | –
17 | C=CCc1ccc(OCC(O)Cn2cc(COc3ccc(Cl)cc3)nn2)c(OC)c1 (racemic) | 7.2 | 4.43 | 7.2 | 1.5 | 58.1 | –
18 | CCCc1ccc(OCC(O)Cn2cc(COc3ccc(Cl)cc3)nn2)c(OC)c1 (racemic) | 29.3 | 4.71 | 29.3 | 6.6 | 132 | Activity [6]: Non-Toxic; pIC50 (Trypanosoma cruzi [7]): 4.68; Activity (Trypanosoma cruzi [8]): inactive; Activity [9]: Non-Toxic; Activity [10]: Toxic; Activity [11]: Non-Toxic; Activity [12]: Non-Toxic; Activity [13]: Non-Toxic; Activity [14]: Non-Toxic
19 | CCCc1ccc(OCC(O)Cn2cc(COc3ccc([N+](=O)[O-])cc3)nn2)c(OC)c1 (racemic) | 24 | 5.14 | 24 | 77.6 | 568 | Activity [6]: Toxic; inhibition (Mus musculus [15]): inactive; Activity [16]: Non-Toxic; pIC50 (Trypanosoma cruzi [7]): 5.08; Activity [17]: Non-Toxic; Activity (Trypanosoma cruzi [18]): Active; inhibition in vivo at 100 mg/kg (Trypanosoma cruzi [19]): 99.4%; inhibition (Mus musculus [20]): Active; Activity [9]: Non-Toxic; Activity [11]: Non-Toxic; Activity [12]: Non-Toxic; inhibition (Mus musculus [21]): inactive; Activity [13]: Non-Toxic; inhibition (Mus musculus [22]): Active; Activity [14]: Non-Toxic; Activity [23]: Non-Toxic; inhibition (Mus musculus [24]): inactive; inhibition (Mus musculus [25]): Active; inhibition (Mus musculus [26]): Active
20 | O=C(Cn1ccnc1[N+](=O)[O-])NCc1ccccc1 [BENZNIDAZOLE] | – | 4.67 | – | 78.4 | – | pIC50 (Trypanosoma cruzi [7]): 4.90; inhibition (Mus musculus [22]): Active; inhibition in vivo at 100 mg/kg (Trypanosoma cruzi [27]): 100%; pIC50 (H9c2): 2.77; inhibition (Mus musculus [25]): Active; inhibition (Mus musculus [26]): Active
21 | C=CCc1ccc(OCC(O)Cn2cc(COc3ccc(OC)cc3)nn2)c(OC)c1 (racemic) | 7.2 | 3.72 | 7.2 | 8.9 | – | pIC50 (H9c2): 2.77
22 | C=CCc1ccc(OCC(O)Cn2cc(COc3ccc(C(C)C)cc3)nn2)c(OC)c1 (racemic) | 7.2 | 3.08 | 7.2 | 0.5 | 480 | –
